Consider 4 compounds from ChEMBL document CHEMBL1201862, “PubChem BioAssay data set” (2004).

The source made the active and inactive calls. Where only a bound is given, the exact number is not on record here.

The target of assay [1] is E3 ubiquitin-protein ligase Mdm2 (Homo sapiens, UniProt Q00987). As to the kind of experiment: enhancers of MDM2-luciferase reporter signal, concentration-effect titration, project on inhibitors of MDM2 ubiquitin ligase, cellular assay, luminescent readout, 384-well plate format (AID 1394).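 Note: MDM2 E3 inhibitors raise luminescence so EC50 is for signal enhancement.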 Type of assay: functional.
E3 ubiquitin-protein ligase Mdm2, sequence (Q00987 whole entry): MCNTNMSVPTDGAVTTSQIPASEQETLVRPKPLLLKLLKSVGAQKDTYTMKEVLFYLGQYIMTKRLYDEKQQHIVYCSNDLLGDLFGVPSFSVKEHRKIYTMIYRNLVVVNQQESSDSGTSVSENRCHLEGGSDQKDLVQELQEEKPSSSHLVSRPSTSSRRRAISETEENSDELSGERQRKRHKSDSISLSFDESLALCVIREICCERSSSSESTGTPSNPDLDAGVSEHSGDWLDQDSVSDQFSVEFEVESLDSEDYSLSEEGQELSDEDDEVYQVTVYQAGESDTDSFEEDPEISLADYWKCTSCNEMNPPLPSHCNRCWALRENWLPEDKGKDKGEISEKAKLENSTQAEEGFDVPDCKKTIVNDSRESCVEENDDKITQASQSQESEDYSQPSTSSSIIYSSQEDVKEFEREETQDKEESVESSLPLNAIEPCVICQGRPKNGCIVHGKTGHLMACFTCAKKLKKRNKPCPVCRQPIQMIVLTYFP
For a further assay, the target named is Transthyretin (Homo sapiens, UniProt P02766). As to the kind of experiment: Luminescence-based cell-based high throughput dose response assay to identify activators of Transthyretin (TTR) transcription. Type of assay: functional.
For assay [2], the target named is T1, Replicative DNA helicase DnaB (Mycobacterium tuberculosis, UniProt P9WMR3).
T1 sequence (P9WMR3 whole entry): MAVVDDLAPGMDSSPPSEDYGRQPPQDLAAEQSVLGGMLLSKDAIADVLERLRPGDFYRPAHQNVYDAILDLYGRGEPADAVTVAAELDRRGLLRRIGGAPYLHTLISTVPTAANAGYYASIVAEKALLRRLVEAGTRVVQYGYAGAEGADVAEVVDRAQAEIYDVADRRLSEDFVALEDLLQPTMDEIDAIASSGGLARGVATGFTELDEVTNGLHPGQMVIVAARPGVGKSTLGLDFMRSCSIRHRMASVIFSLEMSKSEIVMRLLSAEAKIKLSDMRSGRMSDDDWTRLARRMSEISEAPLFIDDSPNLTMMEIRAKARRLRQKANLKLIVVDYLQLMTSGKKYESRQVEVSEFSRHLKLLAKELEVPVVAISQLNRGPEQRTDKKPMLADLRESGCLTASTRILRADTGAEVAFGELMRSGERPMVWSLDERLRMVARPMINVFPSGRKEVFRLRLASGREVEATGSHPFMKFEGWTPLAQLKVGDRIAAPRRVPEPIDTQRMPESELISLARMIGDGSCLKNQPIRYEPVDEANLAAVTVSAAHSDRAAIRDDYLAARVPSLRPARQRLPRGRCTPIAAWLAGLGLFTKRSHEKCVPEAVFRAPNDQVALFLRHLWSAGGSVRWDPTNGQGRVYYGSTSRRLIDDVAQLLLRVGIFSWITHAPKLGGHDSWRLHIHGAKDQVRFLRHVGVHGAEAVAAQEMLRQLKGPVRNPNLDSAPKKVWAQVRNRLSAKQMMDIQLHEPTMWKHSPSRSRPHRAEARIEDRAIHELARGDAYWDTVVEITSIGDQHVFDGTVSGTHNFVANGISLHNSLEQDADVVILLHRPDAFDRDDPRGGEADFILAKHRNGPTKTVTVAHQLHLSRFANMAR
As to the kind of experiment: DnaB intein splicing inhibitors, dose response, biochemical, cell-free fluorescence (AID 449749). The format is functional.

The target of a further assay is T2, Protein RecA (Mycobacterium tuberculosis, UniProt P9WHJ3).
T2 sequence (P9WHJ3 whole entry): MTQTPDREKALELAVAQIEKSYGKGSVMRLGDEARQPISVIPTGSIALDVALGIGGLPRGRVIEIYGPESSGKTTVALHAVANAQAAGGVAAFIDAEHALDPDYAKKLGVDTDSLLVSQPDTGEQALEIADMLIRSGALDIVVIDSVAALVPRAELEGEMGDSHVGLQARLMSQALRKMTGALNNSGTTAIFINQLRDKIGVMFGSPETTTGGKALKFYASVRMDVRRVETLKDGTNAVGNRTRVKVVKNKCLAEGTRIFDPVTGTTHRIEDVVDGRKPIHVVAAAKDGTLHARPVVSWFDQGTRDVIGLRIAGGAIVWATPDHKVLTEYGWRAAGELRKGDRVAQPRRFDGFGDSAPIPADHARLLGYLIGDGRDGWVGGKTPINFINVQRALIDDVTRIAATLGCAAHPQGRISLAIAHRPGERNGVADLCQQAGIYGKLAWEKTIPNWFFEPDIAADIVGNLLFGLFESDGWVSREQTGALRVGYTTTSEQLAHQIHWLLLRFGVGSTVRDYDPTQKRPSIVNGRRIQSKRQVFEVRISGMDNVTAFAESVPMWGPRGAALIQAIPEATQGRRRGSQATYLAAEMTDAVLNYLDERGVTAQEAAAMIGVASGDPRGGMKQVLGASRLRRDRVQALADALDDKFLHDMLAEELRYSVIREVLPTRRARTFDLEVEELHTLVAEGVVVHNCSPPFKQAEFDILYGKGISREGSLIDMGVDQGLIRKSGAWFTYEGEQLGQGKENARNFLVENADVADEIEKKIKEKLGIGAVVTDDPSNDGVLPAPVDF
As to the kind of experiment: Fluorescence Cell-Free Homogeneous Dose Retest to Identify Inhibitors of RecA-Intein Splicing Activity. [Related pubchem assays (depositor defined):AID2097, AID2223, AID489010, AID492950]. Type of assay: functional.

Assay [3] is described as follows: Jurkat T cell cytotoxicity, dose response, cytotoxicity control for P. falciparum gametocyte viability project, luminescence (AID 1117277).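 Note: potency reflects loss of cellular ATP meaning fewer viable cells.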 The format is functional, cell-based.
The nature of assay [4]: P. falciparum late gametocyte killing, dose response, luminescence (AID 1117278).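 Note: gametocytes exposed to compound for 24 hours.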 The format is functional, cell-based.
For assay [5], the target named is Voltage-gated inwardly rectifying potassium channel KCNH2 (Homo sapiens, UniProt Q12809). Put plainly: hERG protection from proarrhythmic block, potency, dose response, cell-based, thallium flux (AID 2121). Type of assay: ADME. Background: The hERG channel carries a current that helps repolarise heart muscle cells.
Voltage-gated inwardly rectifying potassium channel KCNH2, sequence (Q12809 whole entry): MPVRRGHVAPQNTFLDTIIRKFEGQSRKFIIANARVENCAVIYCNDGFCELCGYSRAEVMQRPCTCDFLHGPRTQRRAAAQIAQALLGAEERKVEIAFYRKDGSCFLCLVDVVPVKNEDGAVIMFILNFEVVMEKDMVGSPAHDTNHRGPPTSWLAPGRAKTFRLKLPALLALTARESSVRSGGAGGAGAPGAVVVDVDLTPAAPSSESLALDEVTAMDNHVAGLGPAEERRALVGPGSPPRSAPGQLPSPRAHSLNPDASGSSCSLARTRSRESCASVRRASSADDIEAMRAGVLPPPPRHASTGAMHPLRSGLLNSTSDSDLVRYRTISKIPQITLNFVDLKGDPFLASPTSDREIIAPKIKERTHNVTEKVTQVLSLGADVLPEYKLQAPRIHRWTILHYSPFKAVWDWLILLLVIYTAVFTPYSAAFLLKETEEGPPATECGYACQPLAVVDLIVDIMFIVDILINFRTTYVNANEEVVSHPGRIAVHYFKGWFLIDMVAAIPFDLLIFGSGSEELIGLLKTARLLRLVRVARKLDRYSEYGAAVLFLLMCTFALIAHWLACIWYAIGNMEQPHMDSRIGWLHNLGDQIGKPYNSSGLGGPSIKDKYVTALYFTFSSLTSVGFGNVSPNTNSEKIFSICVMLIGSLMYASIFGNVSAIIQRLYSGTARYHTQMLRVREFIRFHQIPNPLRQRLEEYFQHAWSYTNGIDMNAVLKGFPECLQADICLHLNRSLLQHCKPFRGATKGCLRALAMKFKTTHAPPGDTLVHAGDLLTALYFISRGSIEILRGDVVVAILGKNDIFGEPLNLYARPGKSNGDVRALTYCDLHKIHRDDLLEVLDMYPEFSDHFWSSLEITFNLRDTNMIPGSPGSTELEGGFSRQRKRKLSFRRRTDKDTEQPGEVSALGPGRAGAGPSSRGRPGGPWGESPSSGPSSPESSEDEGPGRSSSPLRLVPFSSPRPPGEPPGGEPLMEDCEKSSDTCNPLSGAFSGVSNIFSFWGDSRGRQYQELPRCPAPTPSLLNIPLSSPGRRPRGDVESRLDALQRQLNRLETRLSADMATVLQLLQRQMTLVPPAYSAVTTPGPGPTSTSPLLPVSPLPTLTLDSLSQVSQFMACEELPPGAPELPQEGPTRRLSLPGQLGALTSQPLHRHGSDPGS

As usually defined, the EC50 is the concentration needed to bring the measured effect to its halfway point. With `CC(=O)Nc1ccc(S(=O)(=O)N2CCN=C2SCc2cccnc2)cc1`, in assay [1], the EC50 is 9.39 µM (not active). Broadly, the AC50 is the concentration giving half of the maximal activity seen. Regarding `COc1ccc2[nH]c3c(Cl)ncnc3c2c1`, the results for the EC50 at Transthyretin and on Protein RecA were > 167 µM (inactive) and > 380 µM (inactive), respectively. Also, in assay [2], the AC50 was > 380 µM (inactive). By IC50 is commonly meant the concentration that inhibits the measured activity by half. For `NC(=O)C1CCN(C(=O)CN2CCc3ccccc32)CC1`, the IC50 was > 83.3 µM (inactive) in assay [3] and > 109 µM (inactive) in assay [4]. Turning to `COc1ccc(C(=O)NNC(=O)C(=O)Nc2ccc(C)c(Cl)c2)cc1`, in assay [5], the half-maximal effective concentration (EC50) is 60 nM (active).
